Experimental data as given in patent publication US3954793A, “1-(2-Propynyl)-1 H-indazole compounds” (priority 1973, dated 1976).
Several values for one entry are separate records, joined by “and”; a condition that tells them apart may be missing. Identical values can stand only once.

Columns and labels:
[1] = system: Wilson strain house flies; format: in vivo, Wilson strain (susceptible)
Protocol: The required solutions of the insecticide and of the synergist compound were prepared in acetone at a concentration of 1 milligram per milliliter. One-pint wide mouth glass jars were coated with the appropriate insecticide-synergist combination by rolling the jars containing aliquots of the appropriate solutions diluted to three milliliters with acetone to deposit, by evaporation, a film of the test materials. The flies were transferred under carbon dioxide anesthesia and held in the jar at room temperature. Perforated aluminum foil was used to cover the jars and to hold cotton saturated with 10% sugar solution. Counts were made at intervals, but the recorded mortality was based on 24-hour kill, rather than knockdown. All prostrate non-moving flies were considered dead. A determination was then made of the contact synergistic ratio [SR], which is the ratio of the LC50 of insecticide alone to the LC50 of the insecticide when applied together with the synergist. The LC50 of the insecticide was estimated from a log-probit plot of percent kill versus dosage. […] The LC50 of the combination of insecticide and synergist was determined at a synergist to insecticide parts by weight ratio of five to one.

[2] = system: polyvalent resistant (CH strain) houseflies; assay: whole plant or invertebrate; format: in vivo
Protocol: The effect of O-(2-propynyl) oximes with Dimetilan and with GS 13798 was obtained from tests on polyvalent resistant (CH strain) houseflies that had been chilled and to the dorsal region of which was applied an acetone solution of synergist and insecticide at a ratio of two to one. Duplicate tests were performed using 10 four to five-day old female houseflies per test. After dosage, the flies were put in a plastic petri dish with cotton soaked in a sugar-water solution. These doses of insecticide used without synergist caused 10-40% mortality.
In Table IX, and in the tables following it, the doses of topically applied insecticides and of synergists unless otherwise noted are expressed as micrograms per fly (μg/fly).
The effect of compounds II-C, II-D and II-E with Dimetilan and GS 13798 was determined, following the procedure of Example 5, from tests on polyvalent resistant (CH strain) houseflies. These doses of insecticide used without synergist caused 10-40% mortality.
The synergistic effect with GS 13005 of compounds I-A, I-B, I-D, I-E, I-F, I-G and I-I was determined from topical application tests to IN/WHO strain, Rutgers A strain and polyvalent CH strain houseflies using the procedures of Example 5. The percent kills of the IN/WHO strain flies after 24 hours are shown in Table XXVIII; of the Rutgers A strain, in Table XXIX; and of the polyvalent CH strain, in Table XXX. The doses of insecticide alone to the CH strain files caused 10-40% mortality.
The synergistic effect with Diazinon and GS 13005 of various of the benzyl 2-propynyl ethers identified in Tables II and IIa was determined by topical application tests on IN/WHO strain, and Rutgers A strain and polyvalent, resistant, CH strain houseflies using the procedures of Example 5. The percent kills after 24 hours of IN/WHO strain flies are shown in Table XXXI; of Rutgers A strain flies, in Table XXXII; and of CH strain flies, in Table XXXIII. The doses of insecticide alone to the CH strain flies caused 10-40% mortality.
The synergistic effect with pyrethrum of various synergist compounds was determined by topical application tests on polyvalent, resistant CH strain houseflies following the procedure of Example 5. Application of the insecticide alone caused 10-40% mortality.

houseflies = assay: topical application with Diazinon, Table XXVII (strain not given); format: in vivo
[3] = system: IN/WHO strain house flies; assay: topical application, percent kill after 24 hours, susceptible IN/WHO strain; format: in vivo, female)
How it was run: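 Insecticide plus synergist in acetone, 1.0 μl applied to the thorax of CO2-anesthetized 3-to-5-day-old female IN/WHO house flies, doses in μg/fly. Flies held 10 per dish, 3-5 dishes per treatment, with skim milk. Percent mortality scored after 24 h.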

[4] = system: Swiss albino, white male mice; assay: acute toxicity and synergism of acute toxicity in mice; format: in vivo; settings: GS 13005 (71 mg/kg) in 0.1 ml corn oil
How it was run: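 Male Swiss albino mice (23 to 27 g, five to six weeks), eight per dose, dosed intraperitoneally in corn oil: dimetilan alone at 4 to 32 mg per kg, synergists alone at 1000 mg/kg with deaths counted at 72 hours. For synergism, synergist given 1 hour before insecticide, lethality observed for at least 6 hours.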

[5] = system: German male cockroaches (Blatella Germanicus); assay: topical application to thorax, 24 hour mortality of German male cockroaches; format: in vivo; settings: cockroaches
Protocol: The synergistic effect with mobam of synergist compounds I-B, II-H, II-K and IV-C is further illustrated by the 24 hour mortality data of German male cockroaches (Blatella Germanicus) shown in Table XXXX. The synergists and insecticide were diluted in acetone and applied in small droplets to the thorax of the insect. These doses of synergist alone gave zero percent insect mortality.
The synergistic effect with GS 13005 of compounds I-B, II-H, II-K, II-P, II-Q, II-R and IV-C is illustrated by the 24 hour mortality of German male cockroaches shown in Table XXXXI. These doses of synergist alone caused zero percent insect mortality.

[6] = system: Rutgers A strain house flies; assay: topical application, percent kill after 24 hours, resistant Rutgers A strain; format: in vivo, female)
How it was run: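 Synergist plus mobam, Diazinon or GS 13005 dissolved in acetone, applied as 1.0 μl to the thorax of CO2-anaesthetised 3-to-5 day old female Rutgers A (resistant) house flies; doses in μg/fly. Flies held 10 per dish, 3-5 dishes per treatment, with skim milk; mortality scored at 24 h.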

## C#CCON=Cc1ccc(OC)c(OC)c1 [I-A]
[1]; LC50 pyrolan alone / LC50 with synergist, synergist to insecticide 5:1 by weight
  Contact Synergistic Ratio, Pyrolan: 30
[1]; in vivo
  Contact Synergistic Ratio, Carbaryl: 200
[2]; Dimetilan 2 + synergist 4 μg/fly, CH strain
  percent kill after 24 hours, with Dimetilan: 100%
[2]; GS 13005 1 + synergist 2 μg/fly, CH strain
  percent kill after 24 hours, with GS 13005: 45%
[2]; Musca domestica, topical, 24 h, insecticide 0, synergist 10 μg/fly, CH strain, read-out: percent kill after 24 hours, synergist alone
  mortality at 10 µg/fly: 0%
[2]; Pyrethrum 2 + synergist 4 μg/fly, CH strain
  percent kill after 24 hours, with pyrethrum: 15%
[2]; insecticide 0, synergist 10 μg/fly, CH strain
  percent kill after 24 hours, synergist alone: 0%
houseflies; Diazinon 5 + synergist 10 μg/fly
  percent kill after 24 hours, with Diazinon (Table XXVII): 45%
houseflies; Musca domestica, topical, 24 h, Diazinon 0, synergist 10 μg/fly, read-out: percent kill after 24 hours, synergist alone (Table XXVII)
  mortality at 10 µg/fly: 0%

## COc1nn(CSP(=S)(OC)OC)c(=O)s1 [GS 13005, S-((2-methoxy-5-oxo-Δ^2-1,3,4-thiadiazolin-4-yl)methyl) O,O-dimethyl phosphorodithioate, reference compound]
[3]; GS 13005 0.05, synergist 0 μg/fly
  percent kill after 24 hours, GS 13005 alone: 0%
[3]; GS 13005 0.10, synergist 0 μg/fly, 1440 min
  percent kill after 24 hours, GS 13005 alone: 19% and 16% and 12%
[4]
  number of mice dead, control (GS 13005 alone): 5
[2]; house fly, in vivo, topical or ocular, 24 h
  mortality, insecticide used without synergist: 10-40%
[5]; GS 13005 dose 0.08, synergist 0, 1440 min
  24 hour mortality, GS 13005 alone: 15% and 23% and 10%

## CNC(=O)Oc1cccc2sccc12 [Mobam, 4-benzo(b) thienyl-N-methylcarbamate, reference compound]
[3]; Mobam 0.13 μg/fly alone
  percent mortality 24 hours, Mobam alone: 0%
[3]; Mobam 0.25 μg/fly alone, 1440 min
  percent mortality 24 hours, Mobam alone: 27%
[3]; Mobam 0.50 μg/fly alone, 1440 min
  percent mortality 24 hours, Mobam alone: 83%
[3]; Mobam 1.0 μg/fly alone, 1440 min
  percent mortality 24 hours, Mobam alone: 93%
[3]; Mobam 0.05, synergist 0 μg/fly
  percent kill after 24 hours, Mobam alone: 0%
[3]; Mobam 0.10, synergist 0 μg/fly
  percent kill after 24 hours, Mobam alone: zero
[3]; Mobam 0.10, synergist 0 μg/fly, 1440 min
  percent kill after 24 hours, Mobam alone: 0%
[3]; Mobam 0.20, synergist 0 μg/fly, 1440 min
  percent kill after 24 hours, Mobam alone: 6% and 2% and 9%
[5]; Mobam dose 0.12, synergist 0
  24 hour mortality, Mobam alone: 10%
[5]; Mobam dose 0.16, synergist 0
  24 hour mortality, Mobam alone: 30%
[6]; Mobam 0.15, synergist 0 μg/fly
  percent kill after 24 hours, Mobam alone: 0%
[6]; Mobam 0.30, synergist 0 μg/fly
  percent kill after 24 hours, Mobam alone: 0%
[6]; Mobam 0.40, synergist 0 μg/fly
  percent kill after 24 hours, Mobam alone: 7%
[6]; Mobam 0.60, synergist 0 μg/fly
  percent kill after 24 hours, Mobam alone: 4%
